Activity calls are given as the source filed them. The calls are words filed in the database; no cut-off is given here.
Tests used:
Oryctolagus cuniculus = species on record: Oryctolagus cuniculus; test: Inhibition of rabbit GSKbeta assessed as [32P]-phosphorylation of substrate up to 50 uM after 1 hr by scintillation counting
[1] = Inhibition of rabbit GSKbeta assessed as [32P]-phosphorylation of substrate after 1 hr by scintillation counting; design: species or system Oryctolagus cuniculus

SMILES	inhibition (Oryctolagus cuniculus)	IC50 [1]
CC(O)C[C@H](O)[C@H](O)C[C@H](O)CCC(=O)NCCS(=O)(=O)O (some centres undefined)	inactive	
CCCCC/C=C/C(O)CCCCC/C=C/C(O)CCCCCCCC(=O)OC(C)C[C@H](O)[C@H](O)C[C@H](O)CCC(=O)NCCS(=O)(=O)O (mixture of isomers) [CARTERIOSULFONIC ACID A]		12.5 µM
CCCCC/C=C/C(O)CCCCCCCCCCCCCC(=O)OC(C)C[C@H](O)[C@H](O)C[C@H](O)CCC(=O)NCCS(=O)(=O)O (mixture of isomers) [CARTERIOSULFONIC ACID C]		6.8 µM
CCCCC/C=C/C(O)CCCCC/C=C/C(CCCCCCCC(=O)OC(C)C[C@H](O)[C@H](O)C[C@H](O)CCC(=O)NCCS(=O)(=O)O)OC(C)=O (some centres undefined) [CARTERIOSULFONIC ACID B]		6.8 µM

Source: ChEMBL document CHEMBL1154308, “Carteriosulfonic acids A-C, GSK-3beta inhibitors from a Carteriospongia sp” (J Nat Prod, 2009)
